Assay results reported in patent US20240279205A1, “NOVEL BENZIMIDAZOLE DERIVATIVE” (Carna Biosciences, Inc., priority 2020, published 2024).
Structures can show the parent of a compound that is named as a salt.

Tests used:
human STING (hSTING) = molecular target: T1, human STING (hSTING) (Homo sapiens, UniProt Q86WV6); test: Inhibition test of intracellular human STING (hSTING) pathway using SEAP reporter cells (HEK-Blue ISG), stimulation with Compound 3; format: cell-based; design: hSTING inhibitory activity: scale not given here; details: Compound 3 10 nM stimulation, 21 hours; for IC50: read-out: hSTING inhibitory activity
T1 construct: host or cells: HEK-Blue ISG cells (HEK293-derived SEAP reporter line)
T1 sequence (Q86WV6 whole entry H232R): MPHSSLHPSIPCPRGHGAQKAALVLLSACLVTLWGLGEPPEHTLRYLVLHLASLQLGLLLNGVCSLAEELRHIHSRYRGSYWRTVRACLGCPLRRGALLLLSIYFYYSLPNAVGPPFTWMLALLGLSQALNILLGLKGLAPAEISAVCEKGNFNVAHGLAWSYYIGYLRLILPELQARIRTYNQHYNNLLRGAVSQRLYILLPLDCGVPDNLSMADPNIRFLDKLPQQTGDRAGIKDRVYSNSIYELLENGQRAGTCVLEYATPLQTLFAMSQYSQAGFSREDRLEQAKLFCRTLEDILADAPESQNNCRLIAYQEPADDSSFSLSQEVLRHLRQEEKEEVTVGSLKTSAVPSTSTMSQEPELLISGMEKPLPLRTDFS
Outline: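 IC50 derived by regressing inhibition rate against log compound concentration (0.1 to 10 μM final, added 1 h before agonist), with 0% and 100% set by wells without and with 10 nM Compound 3. SEAP colour reaction read after 21 h stimulation of HEK-Blue ISG reporter cells.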

[1] = tested on: STING activation (IFN-β production in THP-1 cells); test: Human IFN-β production inhibition test by cGAMP stimulation in THP-1 cells; format: cell-based; design: IFN-β bioinhibitory activity: scale not given here; details: 2'3'-cGAMP transfection, 18 hours, IFN-β ELISA; for IC50: Homo sapiens, read-out: IFN-β bioinhibitory activity
Protocol: Human IFN-β production inhibition test by cGAMP stimulation
The inhibitory activity of test compounds against STING activation was evaluated by measuring the amount of IFN-β produced when human monocytic cell line THP-1 cells were stimulated with the endogenous ligand cGAMP.
After seeding THP-1 cells (ATCC) in a 96-well plate, PMA (Santa Cruz Biotechnology) adjusted to a concentration of 100 nM after addition was added, and incubated at 37° C. in a 5% CO2 incubator. It was cultured overnight (RPMI1640 medium containing 10% FBS, 50 U/mL penicillin/50 μg/mL streptomycin). A test compound solution adjusted to a final concentration of 0.001 to 1 μM was added to each well of this plate and cultured for 1 hour in a CO2 incubator (DMSO final concentration 0.1%). 0.12 μg/well of 2′3′-cGAMP (Invivogen, #tlrl-nacga23) was introduced into the cells by transfection using Lipofectamine2000 (Invitrogen) and cultured in a CO incubator for an additional 18 hours. After collecting the culture supernatant from each well, the amount of human IFN-β produced in the culture supernatant was measured by ELISA using R&D human IFN-β Duoset (R&D Systems).
Assuming that the human IFN-β production amount of the test compound-free and cGAMP-added group is 100%, and the human IFN-β production amount of the test compound-free and cGAMP-free group is 0%, the IC50 value was determined by regression analysis of the inhibitory rate determined from the amount of human IFN-β production at each compound concentration and the concentration of the test compound (logarithm).

SMILES | hSTING inhibitory activity (human STING (hSTING)) | IFN-β bioinhibitory activity [1] | IC50 [1] [µM] | IC50 (human STING (hSTING)) [µM]
Clc1ccc2[nH]cc(Nc3nc4c(N5CCCCC5)cccc4[nH]3)c2n1 [Embodiment 127, N-(5-Chloro-1H-pyrrolo[3,2-b]pyridin-3-yl)-4-(piperidin-1-yl)-1H-benzo[d]imidazol-2-amine] | * * | * * | – | –
CC(C)=Cc1ccc2[nH]c(Nc3c[nH]c4ccc(Cl)nc34)nc2c1 [Embodiment 128, N-(5-chloro-1H-pyrrolo[3,2-b]pyridin-3-yl)-5-(2-methylprop-1-en-1-yl)-1H-benzo[d]imidazole-2-amine] | * * | * * * | – | –
Clc1ccc2[nH]cc(Nc3nc4cc(C5CC5)ccc4[nH]3)c2n1 [Embodiment 129, N-(5-Chloro-1H-pyrrolo[3,2-b]pyridin-3-yl)-5-cyclopropyl-1H-benzo[d]imidazol-2-amine] | * * | * * | – | –
N#Cc1ccc2[nH]cc(Nc3nc4cc(Oc5ccccc5)ccc4[nH]3)c2n1 [Embodiment 130, 3-[(5-phenoxy-1H-benzo[d]imidazol-2-yl)amino]-1H-pyrrolo[3,2-b] pyridine-5-carbonitrile] | * * | – | ≥ 1 | –
CC(C)Cc1ccc2[nH]c(Nc3c[nH]c4ccc(Cl)nc34)nc2c1 [Embodiment 131, N-(5-Chloro-1H-pyrrolo[3,2-b]pyridin-3-yl)-5-isobutyl-1H-benzo [d]imidazol-2-amine formate] | * * | * * | – | –
C#Cc1ccc2[nH]c(Nc3c[nH]c4ccc(Cl)nc34)nc2c1 [Embodiment 133, N-(5-Chloro-1H-pyrrolo[3,2-b]pyridin-3-yl)-5-ethynyl-1H-benzo[d] imidazol-2-amine formate] | * * | * * * | – | –
CC#Cc1ccc2[nH]c(Nc3c[nH]c4ccc(Cl)nc34)nc2c1 [Embodiment 136, N-(5-Chloro-1H-pyrrolo[3,2-b]pyridin-3-yl)-5-(prop-1-yn-1-yl)-1H-benzo[d]imidazole-2-amine] | * * | – | 0.1 to 1 | –
C=C(C)c1ccnc2c(Nc3nc4cc(Oc5ccccc5)ccc4[nH]3)c[nH]c12 [Embodiment 144, 5-phenoxy-N-[7-(prop-1-en-2-yl)-1H-pyrrolo[3,2-b]pyridin-3-yl]-1H-benzo[d]imidazole-2-amine] | * * | – | ≥ 1 | –
COCC#Cc1ccc2[nH]c(Nc3c[nH]c4ccc(Cl)nc34)nc2c1 [Embodiment 145, N-(5-Chloro-1H-pyrrolo[3,2-b]pyridin-3-yl)-5(3-methoxyprop-1-yn-1-yl)-1H-benzo[d]imidazole-2-amine] | * * | – | 0.1 to 1 | –
Clc1ccc2[nH]cc(Nc3nc4c(C5=CCOCC5)cccc4[nH]3)c2n1 [Embodiment 149, N-(5-chloro-1H-pyrrolo[3,2-b]pyridin-3-yl)-4-(3,6-dihydro-2H-pyran-4-yl)-1H-benzo[d]imidazol-2-amine] | – | – | 0.1 to 1 | 1 to 10
Clc1ccc2[nH]cc(Nc3nc4cc(N5CCCCC5)ccc4[nH]3)c2n1 [Embodiment 151, N-(5-Chloro-1H-pyrrolo[3,2-b]pyridin-3-yl)-5-(piperidin-1-yl)-1H-benzo[d]imidazol-2-amine] | * * | – | 0.1 to 1 | –
Cn1c(Nc2c[nH]c3ccc(Cl)nc23)nc2c(N3CCCCC3)cccc21 [Embodiment 157, N-(5-chloro-1H-pyrrolo[3,2-b]pyridin-3-yl)-1-methyl-4-(piperidin-1-yl)-1H-benzo[d]imidazole-2-amine formate] | * * | – | 0.1 to 1 | –
CC(C)Oc1ccc2[nH]c(Nc3c[nH]c4ccc(Cl)nc34)nc2c1 [Embodiment 158, N-(5-Chloro-1H-pyrrolo[3,2-b]pyridin-3-yl)-5-isopropoxy-1H-benzo [d]imidazol-2-amine] | * * | – | 0.1 to 1 | –
COc1ccc2c(c1)nc(Nc1c[nH]c3ccc(Cl)nc13)n2C [Embodiment 159, N-(5-Chloro-1H-pyrrolo[3,2-b]pyridin-3-yl)-5-methoxy-1-methyl-1H-benzo[d]imidazol-2-amine] | – | – | 0.1 to 1 | 1 to 10
Fc1cc2nc(Nc3c[nH]c4ccc(Cl)nc34)[nH]c2cc1C(F)(F)F [Embodiment 160, N-(5-Chloro-1H-pyrrolo[3,2-b]pyridin-3-yl)-5-fluoro-6-(trifluoromethyl)-1H-benzo[d]imidazol-2-amine] | * * * | – | 0.1 to 1 | –
Cn1c(Nc2c[nH]c3ccc(Cl)nc23)nc2cc(Br)ccc21 [Embodiment 169, 5-bromo-N-(5-chloro-1H-pyrrolo [3,2-b]pyridin-3-yl)-1-methyl-1H-benzo[d]imidazol-2-amine] | – | * * | – | 1 to 10
COCCn1c(Nc2c[nH]c3ccc(Cl)nc23)nc2cc(C(F)(F)F)ccc21 [Embodiment 178, N-(5-chloro-1H-pyrrolo[3,2-b]pyridin-3-yl)-1-(2-methoxyethyl)-5-(trifluoromethyl)-1H-benzo[d]imidazol-2-amine] | – | – | ≥ 1 | ≥ 10
Cn1c(Nc2c[nH]c3ccc(Cl)cc23)nc2cc(F)ccc21 [Embodiment 185, N-(5-Chloro-1H-indol-3-yl)-5-fluoro-1-methyl-1H-benzo[d]imidazol-2-amine formate] | * * | * * * | – | –
FC(F)(F)c1ccc2c(c1)nc(Nc1c[nH]c3ccc(Cl)nc13)n2C1CC1 [Embodiment 186, N-(5-Chloro-1H-pyrrolo[3,2-b]pyridin-3-yl)-1-cyclopropyl-5-(trifluoromethyl)-1H-benzo[d] imidazol-2-amine] | – | – | 0.1 to 1 | 1 to 10
Fc1ccc(Oc2ccc3nc(Nc4c[nH]c5ccc(Cl)nc45)n(C4CC4)c3c2)cc1 [Embodiment 187, N-(5-chloro-1H-pyrrolo[3,2-b]pyridin-3-yl)-1-cyclopropyl-6-(4-fluorophenoxy)-1H-benzo[d] imidazole-2-amine] | * * | – | 0.1 to 1 | –
C=Cc1ccc2[nH]cc(Nc3nc4ccc(Oc5ccc(F)cc5)cc4n3C3CC3)c2n1 [Embodiment 188, 1-Cyclopropyl-6-(4-fluorophenoxy)-N-(5-vinyl-1H-pyrrolo[3,2-b]pyridin-3-yl)-1H-benzo[d]imidazole-2-amine] | * * | – | 0.1 to 1 | –
Fc1ccc2c(c1)nc(Nc1c[nH]c3ccc(Cl)cc13)n2C1CC1 [Embodiment 189, N-(5-Chloro-1H-indol-3-yl)-1-cyclopropyl-5-fluoro-1H-benzo[d] imidazol-2-amine] | * * | – | 0.1 to 1 | –
CCc1ccc2[nH]cc(Nc3nc4ccc(Oc5ccc(F)cc5)cc4n3C3CC3)c2n1 [Embodiment 190, 1-Cyclopropyl-N-(5-ethyl-1H-pyrrolo[3,2-b]pyridin-3-yl)-6-(4-fluorophenoxy)-1H-benzo[d]imidazole-2-amine formate] | – | – | ≥ 1 | 1 to 10
C=Cc1ccc2[nH]cc(Nc3nc4ccc(Oc5ccc(F)cc5)cc4n3C)c2n1 [Embodiment 191] | * * | – | 0.1 to 1 | –
CCc1ccc2[nH]cc(Nc3nc4ccc(Oc5ccc(F)cc5)cc4n3C)c2n1 [Embodiment 192, N-(5-ethyl-1H-pyrrolo[3,2-b]pyridin-3-yl)-6-(4-fluorophenoxy)-1-methyl-1H-benzo[d]imidazole-2-amine formate] | * * | – | 0.1 to 1 | –
Cn1c(Nc2c[nH]c3ccc(Cl)cc23)nc2ccc(Oc3ccc(F)cc3)cc21 [Embodiment 195, N-(5-Chloro-1H-indol-3-yl)-6-(4-fluorophenoxy)-1-methyl-1H-benzo[d]imidazol-2-amine] | * * * | * * | – | –
Fc1ccc(Oc2ccc3nc(Nc4c[nH]c5ccc(Cl)cc45)n(C4CC4)c3c2)cc1 [Embodiment 196, N-(5-Chloro-1H-indol-3-yl)-1-cyclopropyl-6-(4-fluorophenoxy)-1H-benzo[d]imidazol-2-amine] | * * * | * * | – | –
Cn1c(Nc2c[nH]c3ccc(Cl)nc23)nc2cc(OC(F)(F)F)ccc21 [Embodiment 210, N-(5-Chloro-1H-pyrrolo[3,2-b]pyridin-3-yl)-1-methyl-5-(trifluoromethoxy)-1H-benzo[d] imidazol-2-amine] | * * | * * | – | –
